Where two headings read alike, the source gives them in different places.
Columns and labels:
Format in all cases: cell-based
[1] = target: T1, human muscarinic M2 receptor (Homo sapiens, UniProt P08172); experiment: Alphascreen Surefire phospho-ERK1/2 functional assay, M2; settings: for Emax: CHO, read-out: % Emax cf. ACh (M2); for % Emax cf. ACh (M2): Emax relative to ACh
T1 sequence (P08172 1-466): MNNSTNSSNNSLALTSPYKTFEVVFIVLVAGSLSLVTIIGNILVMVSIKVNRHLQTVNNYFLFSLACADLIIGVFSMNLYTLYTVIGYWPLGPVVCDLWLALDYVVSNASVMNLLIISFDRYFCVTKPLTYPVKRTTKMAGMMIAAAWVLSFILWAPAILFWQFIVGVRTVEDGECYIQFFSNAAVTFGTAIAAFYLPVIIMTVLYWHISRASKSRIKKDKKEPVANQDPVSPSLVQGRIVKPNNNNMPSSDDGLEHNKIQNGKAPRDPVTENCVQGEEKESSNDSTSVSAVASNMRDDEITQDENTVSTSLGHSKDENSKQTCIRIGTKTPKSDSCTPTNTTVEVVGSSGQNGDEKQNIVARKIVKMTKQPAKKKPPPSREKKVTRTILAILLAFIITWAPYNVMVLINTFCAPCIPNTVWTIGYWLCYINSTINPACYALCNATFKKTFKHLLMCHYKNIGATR
Procedure: (§1) ERK1/2 phosphorylation is a downstream consequence of both Gq/11 and Gi/o protein coupled receptor activation, making it highly suitable for the assessment of M1, M3 (Gq/11 coupled) and M2, M4 receptors (Gi/o coupled), rather than using different assay formats for different receptor subtypes. CHO cells stably expressing the human muscarinic M1, M2, M3 or M4 receptor were plated (25K/well) onto 96-well tissue culture plates in MEM-alpha+10% dialysed FBS. Once adhered, cells were serum-starved overnight. Agonist stimulation was performed by the addition of 5 μL agonist to the cells for 5 min (37° C.). Media was removed and 50 μL of lysis buffer added. After 15 min, a 4 μL sample was transferred to 384-well plate and 7 μL of detection mixture added. […]

[2] = target: T2, human muscarinic M4 receptor (Homo sapiens, UniProt P08173); experiment: Alphascreen Surefire phospho-ERK1/2 functional assay, M4; settings: for EC50 / % Emax cf. ACh (M4) / pEC50 M4: CHO cells stably expressing human M4; for EC50 / pEC50 M4: agonist 5 min, 37° C.; for EC50: read-out: pEC50 M4 (converted); for Emax: CHO, read-out: % Emax cf. ACh (M4), CHO cells stably expressing human M4; for Emax / % Emax cf. ACh (M4): Emax relative to ACh
T2 construct: expressed in transfected cells
T2 sequence (P08173 1-479): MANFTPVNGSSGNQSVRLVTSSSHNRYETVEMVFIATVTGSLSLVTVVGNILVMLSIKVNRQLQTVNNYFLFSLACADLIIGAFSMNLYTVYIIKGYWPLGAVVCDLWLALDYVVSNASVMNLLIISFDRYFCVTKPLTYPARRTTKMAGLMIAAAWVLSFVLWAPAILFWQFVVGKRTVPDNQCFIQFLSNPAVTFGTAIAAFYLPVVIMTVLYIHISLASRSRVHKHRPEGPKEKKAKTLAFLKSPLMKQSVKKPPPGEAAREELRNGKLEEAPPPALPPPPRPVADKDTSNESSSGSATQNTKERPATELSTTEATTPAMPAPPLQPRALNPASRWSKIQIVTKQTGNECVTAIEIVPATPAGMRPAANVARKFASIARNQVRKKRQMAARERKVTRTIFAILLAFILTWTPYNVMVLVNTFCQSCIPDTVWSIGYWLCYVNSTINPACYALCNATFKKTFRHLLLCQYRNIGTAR
Outline: (§2)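 CHO cells stably expressing human M1, M2, M3 or M4 receptor, serum-starved overnight, then stimulated with agonist for 5 min at 37 °C. Cells lysed for 15 min and phospho-ERK1/2 detected in the lysate by AlphaScreen SureFire.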

[3] = target: T3, human muscarinic M3 receptor (Homo sapiens, UniProt P20309); experiment: Alphascreen Surefire phospho-ERK1/2 functional assay, M3; settings: for Emax: CHO, read-out: % Emax cf. ACh (M3); for % Emax cf. ACh (M3): Emax relative to ACh
T3 construct: expressed in transfected cells
T3 sequence (P20309 whole entry): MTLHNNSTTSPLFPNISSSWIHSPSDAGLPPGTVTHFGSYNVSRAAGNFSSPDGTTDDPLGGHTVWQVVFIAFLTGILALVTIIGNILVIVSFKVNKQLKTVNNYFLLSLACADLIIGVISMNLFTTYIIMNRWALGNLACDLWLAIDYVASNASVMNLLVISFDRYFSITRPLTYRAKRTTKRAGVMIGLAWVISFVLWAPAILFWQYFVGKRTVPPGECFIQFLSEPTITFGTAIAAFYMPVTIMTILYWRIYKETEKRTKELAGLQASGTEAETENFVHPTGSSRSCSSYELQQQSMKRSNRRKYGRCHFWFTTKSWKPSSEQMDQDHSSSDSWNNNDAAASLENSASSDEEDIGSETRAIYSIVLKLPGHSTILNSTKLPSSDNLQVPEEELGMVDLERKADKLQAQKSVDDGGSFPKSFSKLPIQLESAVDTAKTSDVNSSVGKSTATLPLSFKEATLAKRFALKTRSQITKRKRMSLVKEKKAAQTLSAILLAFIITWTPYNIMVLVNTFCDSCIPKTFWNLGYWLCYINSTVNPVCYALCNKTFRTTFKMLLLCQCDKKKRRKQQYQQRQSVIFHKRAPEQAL
Procedure: as §1

[4] = target: T4, human muscarinic M1 receptor (Homo sapiens, UniProt P11229); experiment: Alphascreen Surefire phospho-ERK1/2 functional assay, M1; settings: for Emax: CHO, read-out: % Emax cf. ACh (M1), CHO cells stably expressing human M1; for Emax / % Emax cf. ACh (M1): Emax relative to ACh; for EC50 / pEC50 M1: agonist 5 min, 37° C.
T4 sequence (P11229 1-460): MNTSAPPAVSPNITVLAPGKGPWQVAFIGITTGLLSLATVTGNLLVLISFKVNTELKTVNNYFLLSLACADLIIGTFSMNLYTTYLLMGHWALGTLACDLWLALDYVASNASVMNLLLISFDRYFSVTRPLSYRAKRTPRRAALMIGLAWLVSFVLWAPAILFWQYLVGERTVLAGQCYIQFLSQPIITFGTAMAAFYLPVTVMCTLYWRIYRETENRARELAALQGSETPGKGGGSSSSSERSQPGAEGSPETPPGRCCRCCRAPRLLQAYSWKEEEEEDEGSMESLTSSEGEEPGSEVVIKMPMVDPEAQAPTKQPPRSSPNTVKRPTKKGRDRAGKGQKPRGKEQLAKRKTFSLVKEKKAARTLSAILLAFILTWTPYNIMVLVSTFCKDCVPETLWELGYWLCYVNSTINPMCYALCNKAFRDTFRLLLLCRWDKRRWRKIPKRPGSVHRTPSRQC
Outline: as §2

[5] = pEC50 M1, CHO cells stably expressing human M1
[6] = CHO cells stably expressing human M1
[7] = CHO cells stably expressing human M2
[8] = CHO cells stably expressing human M2, agonist 5 min, 37° C.
[9] = CHO cells stably expressing human M3
[10] = CHO cells stably expressing human M3, agonist 5 min, 37° C.

Row | SMILES | EC50 [1] | Emax [1] | EC50 [2] | Emax [2] | EC50 [3] | Emax [3] | Emax [4] | EC50 [4, 5] | EC50 ([1]; CHO cells stably expressing human M2, agonist 5 min, 37° C., read-out: pEC50 M2 (converted)) | EC50 ([3]; CHO cells stably expressing human M3, agonist 5 min, 37° C., read-out: pEC50 M3 (converted)) | EC50 ([4]; CHO cells stably expressing human M1, read-out: pEC50 M1 (converted)) | % Emax cf. ACh (M4) [2] | % Emax cf. ACh (M1) [4, 6] | % Emax cf. ACh (M2) [1, 7] | pEC50 M2 [1, 8] | pEC50 M4 [2] | % Emax cf. ACh (M3) [3, 9] | pEC50 M3 [3, 10] | pEC50 M1 [4, 6]
1 | O=C1CC2(CCN(C3CC4CCC(C3)N4c3nc(C(F)(F)F)no3)CC2)CN1 (single isomer, unassigned) [12-3 Isomer 1] | > 20000 nM | 19% | > 20000 nM | 14% | > 20000 nM | 31% | 67% | 31.6 nM | – | – | – | – | – | – | – | – | – | – | –
2 | CCC1(NC(=O)C2CCN(C3CC4CCC(C3)N4c3nc(C)no3)CC2)CCC1 (single isomer, unassigned) [12-8 Isomer 2] | – | 33% | 933 nM | 109% | – | 3% | 104% | – | 2450 nM | > 20000 nM | 135 nM | – | – | – | – | – | – | – | –
3 | CC1(NC(=O)C2CCN(C3CC4CCC(C3)N4c3nc(C(F)(F)F)no3)CC2)CCC1 (single isomer, unassigned) [12-14 Isomer 2] | > 20000 nM | 25% | 331 nM | – | > 20000 nM | 9% | – | 18.6 nM | – | – | – | (40) % | (115) % | – | – | – | – | – | –
4 | CC(=O)N(CC1(C)CCC1)C1CCN(C2CC3CCC(C2)N3c2nc(C)no2)CC1 (single isomer, unassigned; isomer 1) [12-18 Isomer 1] | – | – | – | – | – | – | – | – | – | – | – | (62) % | (87) % | (27) % | 5.23 | 6.68 | (15) % | <4.70 | 7.00
5 | CCN(CC)C(=O)[C@H]1[C@@H]2CN(C3CC4CCC(C3)N4c3nc(C)no3)C[C@@H]21 (single isomer, unassigned; isomer 1) [12-25 Isomer 1] | – | – | – | – | – | – | – | – | – | – | – | (22) % | (102) % | (31) % | <4.70 | <4.70 | (50) % | <4.70 | 6.70
6 | O=C1CC2(CCN(C3CC4CCC(C3)N4c3nc(C(F)(F)F)no3)CC2)CN1 (single isomer, unassigned; isomer 2) [12-3 Isomer 2] | – | – | – | – | – | – | – | – | – | – | – | (23) % | (103) % | (14) % | <4.70 | 6.70 | (70) % | <4.70 | 8.30
7 | CC(=O)N(CC1(C)CCC1)C1CCN(C2CC3CCC(C2)N3c2nc(C)no2)CC1 (single isomer, unassigned; isomer 2) [12-18 Isomer 2] | – | – | – | – | – | – | – | – | – | – | – | (92) % | (92) % | (90) % | 6.59 | 7.83 | (48) % | 5.72 | 8.63
8 | Cc1noc(N2C3COCC2CC(N2C[C@@H]4[C@H](C2)[C@H]4C(=O)N(C)C(C)C)C3)n1 (single isomer, unassigned; isomer 2) [12-22 Isomer 2] | – | – | – | – | – | – | – | – | – | – | – | (108) % | (102) % | (81) % | 5.68 | 6.23 | (52) % | 4.90 | 8.06

Source: patent US10858352B2, “Pharmaceutical compounds” (Heptares Therapeutics Limited, priority 2018, dated 2020)
